Laboratory results reported in ChEMBL document CHEMBL4017512 (J Med Chem, 2017).

Legend:
HCT-116 = experiment: Antiproliferative activity against human HCT116 cells after 72 hrs by phosphatase assay; type: functional, cell-based; details: HCT-116, 72 h
[1] = Cytotoxicity against human HCT116/VM46 cells assessed as reduction in cell viability after 72 hrs by phosphatase assay; type: cell-based; details: HCT-116/VM46, 72 h
L1210 = experiment: Antiproliferative activity against mouse L1210 cells after 72 hrs by phosphatase assay; type: functional, cell-based; details: L1210, 72 h

Compound | IC50 (HCT-116) [nM] | IC50 (L1210) [nM] | IC50 [1] [nM]
CC[C@]1(NC(=O)c2ccc(C)c(OC)c2)C[C@H]2CN(CCc3c([nH]c4ccccc34)[C@@](C(=O)OC)(c3cc4c(cc3OC)N(C)[C@H]3[C@@](O)(C(=O)OC)[C@H](OC(C)=O)[C@]5(CC)C=CCN6CC[C@]43[C@@H]65)C2)C1 | 3.3 | 4.2 | 6.9
CC[C@]1(NC(=O)c2ccc(NC)cc2)C[C@H]2CN(CCc3c([nH]c4ccccc34)[C@@](C(=O)OC)(c3cc4c(cc3OC)N(C)[C@H]3[C@@](O)(C(=O)OC)[C@H](OC(C)=O)[C@]5(CC)C=CCN6CC[C@]43[C@@H]65)C2)C1 | 0.33 | 0.38 | 6.2
CC[C@]1(NC(=O)c2cc(C)c(OCc3ccccc3)c(C)c2)C[C@H]2CN(CCc3c([nH]c4ccccc34)[C@@](C(=O)OC)(c3cc4c(cc3OC)N(C)[C@H]3[C@@](O)(C(=O)OC)[C@H](OC(C)=O)[C@]5(CC)C=CCN6CC[C@]43[C@@H]65)C2)C1 | 30 | 30 | 80
CC[C@]1(NC(=O)/C=C/c2ccoc2)C[C@H]2CN(CCc3c([nH]c4ccccc34)[C@@](C(=O)OC)(c3cc4c(cc3OC)N(C)[C@H]3[C@@](O)(C(=O)OC)[C@H](OC(C)=O)[C@]5(CC)C=CCN6CC[C@]43[C@@H]65)C2)C1 | 0.7 | 0.7 | 20
CC[C@]1(NC(=O)/C=C/c2ccccn2)C[C@H]2CN(CCc3c([nH]c4ccccc34)[C@@](C(=O)OC)(c3cc4c(cc3OC)N(C)[C@H]3[C@@](O)(C(=O)OC)[C@H](OC(C)=O)[C@]5(CC)C=CCN6CC[C@]43[C@@H]65)C2)C1 | 0.7 | 0.7 | 25
CC[C@]1(NC(=O)c2ccc3ccccc3c2)C[C@H]2CN(CCc3c([nH]c4ccccc34)[C@@](C(=O)OC)(c3cc4c(cc3OC)N(C)[C@H]3[C@@](O)(C(=O)OC)[C@H](OC(C)=O)[C@]5(CC)C=CCN6CC[C@]43[C@@H]65)C2)C1 | 2.3 | 1.9 | 6.4
CC[C@]1(NC(=O)c2ccc3cccc(OC)c3c2)C[C@H]2CN(CCc3c([nH]c4ccccc34)[C@@](C(=O)OC)(c3cc4c(cc3OC)N(C)[C@H]3[C@@](O)(C(=O)OC)[C@H](OC(C)=O)[C@]5(CC)C=CCN6CC[C@]43[C@@H]65)C2)C1 | 13 | 10 | 70
CC[C@]1(NC(=O)c2ccc3cc4ccccc4cc3c2)C[C@H]2CN(CCc3c([nH]c4ccccc34)[C@@](C(=O)OC)(c3cc4c(cc3OC)N(C)[C@H]3[C@@](O)(C(=O)OC)[C@H](OC(C)=O)[C@]5(CC)C=CCN6CC[C@]43[C@@H]65)C2)C1 | 60 | 40 | 150
CC[C@]1(NC(=O)c2ccc(C)c(NC(=O)c3ccccc3)c2)C[C@H]2CN(CCc3c([nH]c4ccccc34)[C@@](C(=O)OC)(c3cc4c(cc3OC)N(C)[C@H]3[C@@](O)(C(=O)OC)[C@H](OC(C)=O)[C@]5(CC)C=CCN6CC[C@]43[C@@H]65)C2)C1 | 7.6 | 30 | 240
CC[C@]1(NC(=O)c2ccc(OC)cc2)C[C@H]2CN(CCc3c([nH]c4ccccc34)[C@@](C(=O)OC)(c3cc4c(cc3OC)N(C)[C@H]3[C@@](O)(C(=O)OC)[C@H](OC(C)=O)[C@]5(CC)C=CCN6CC[C@]43[C@@H]65)C2)C1 | 0.3 | 0.25 | 7.6
CC[C@]1(NC(=O)c2ccc(C)cc2)C[C@H]2CN(CCc3c([nH]c4ccccc34)[C@@](C(=O)OC)(c3cc4c(cc3OC)N(C)[C@H]3[C@@](O)(C(=O)OC)[C@H](OC(C)=O)[C@]5(CC)C=CCN6CC[C@]43[C@@H]65)C2)C1 | 0.45 | 0.5 | 4.5
CC[C@]1(NC(=O)c2ccc(C3CCCCC3)cc2)C[C@H]2CN(CCc3c([nH]c4ccccc34)[C@@](C(=O)OC)(c3cc4c(cc3OC)N(C)[C@H]3[C@@](O)(C(=O)OC)[C@H](OC(C)=O)[C@]5(CC)C=CCN6CC[C@]43[C@@H]65)C2)C1 | 30 | 40 | 60
CC[C@]1(NC(=O)c2ccc3c(c2)CCC3)C[C@H]2CN(CCc3c([nH]c4ccccc34)[C@@](C(=O)OC)(c3cc4c(cc3OC)N(C)[C@H]3[C@@](O)(C(=O)OC)[C@H](OC(C)=O)[C@]5(CC)C=CCN6CC[C@]43[C@@H]65)C2)C1 | 5.6 | 5 | 11

More lines, in order of falling IC50 (HCT-116), values ahead:

IC50 (HCT-116) [nM] | IC50 (L1210) [nM] | Compound | IC50 [1] [nM]
90 | 70 | CC[C@]1(NC(=O)C(C)C)C[C@H]2CN(CCc3c([nH]c4ccccc34)[C@@](C(=O)OC)(c3cc4c(cc3OC)N(C)[C@H]3[C@@](O)(C(=O)OC)[C@H](OC(C)=O)[C@]5(CC)C=CCN6CC[C@]43[C@@H]65)C2)C1 | 1400
55 | 50 | CC[C@]1(NC(=O)c2ccccc2Cl)C[C@H]2CN(CCc3c([nH]c4ccccc34)[C@@](C(=O)OC)(c3cc4c(cc3OC)N(C)[C@H]3[C@@](O)(C(=O)OC)[C@H](OC(C)=O)[C@]5(CC)C=CCN6CC[C@]43[C@@H]65)C2)C1 | 390
50 | 80 | CC[C@]1(NC(=O)c2cn(C)cn2)C[C@H]2CN(CCc3c([nH]c4ccccc34)[C@@](C(=O)OC)(c3cc4c(cc3OC)N(C)[C@H]3[C@@](O)(C(=O)OC)[C@H](OC(C)=O)[C@]5(CC)C=CCN6CC[C@]43[C@@H]65)C2)C1 | > 1000
25 | 30 | CC[C@]1(NC(=O)C2CCCC2)C[C@H]2CN(CCc3c([nH]c4ccccc34)[C@@](C(=O)OC)(c3cc4c(cc3OC)N(C)[C@H]3[C@@](O)(C(=O)OC)[C@H](OC(C)=O)[C@]5(CC)C=CCN6CC[C@]43[C@@H]65)C2)C1 | 380
20 | 30 | CCCCc1ccc(C(=O)N[C@@]2(CC)C[C@H]3CN(CCc4c([nH]c5ccccc45)[C@@](C(=O)OC)(c4cc5c(cc4OC)N(C)[C@H]4[C@@](O)(C(=O)OC)[C@H](OC(C)=O)[C@]6(CC)C=CCN7CC[C@]54[C@@H]76)C3)C2)cc1 | 70
10 | 25 | CC[C@]1(NC(=O)c2ccc(CC(C)C)cc2)C[C@H]2CN(CCc3c([nH]c4ccccc34)[C@@](C(=O)OC)(c3cc4c(cc3OC)N(C)[C@H]3[C@@](O)(C(=O)OC)[C@H](OC(C)=O)[C@]5(CC)C=CCN6CC[C@]43[C@@H]65)C2)C1 | 65
8.7 | 7.5 | CC[C@]1(NC(=O)c2cccc(C(C)C)c2)C[C@H]2CN(CCc3c([nH]c4ccccc34)[C@@](C(=O)OC)(c3cc4c(cc3OC)N(C)[C@H]3[C@@](O)(C(=O)OC)[C@H](OC(C)=O)[C@]5(CC)C=CCN6CC[C@]43[C@@H]65)C2)C1 | 65
6.5 | 5.2 | CC[C@]1(NC(=O)c2ccc(Oc3ccccc3)cc2)C[C@H]2CN(CCc3c([nH]c4ccccc34)[C@@](C(=O)OC)(c3cc4c(cc3OC)N(C)[C@H]3[C@@](O)(C(=O)OC)[C@H](OC(C)=O)[C@]5(CC)C=CCN6CC[C@]43[C@@H]65)C2)C1 | 50
6.5 | 5 | CC[C@]1(NC(=O)c2ccc3cc(NC(=O)OC(C)(C)C)ccc3c2)C[C@H]2CN(CCc3c([nH]c4ccccc34)[C@@](C(=O)OC)(c3cc4c(cc3OC)N(C)[C@H]3[C@@](O)(C(=O)OC)[C@H](OC(C)=O)[C@]5(CC)C=CCN6CC[C@]43[C@@H]65)C2)C1 | 60
6.1 | 4.2 | CCOc1ccc(C(=O)N[C@@]2(CC)C[C@H]3CN(CCc4c([nH]c5ccccc45)[C@@](C(=O)OC)(c4cc5c(cc4OC)N(C)[C@H]4[C@@](O)(C(=O)OC)[C@H](OC(C)=O)[C@]6(CC)C=CCN7CC[C@]54[C@@H]76)C3)C2)cc1Cl | 40
4.2 | 3.1 | CC[C@]1(NC(=O)c2cc(Cl)c(OC)c(Cl)c2)C[C@H]2CN(CCc3c([nH]c4ccccc34)[C@@](C(=O)OC)(c3cc4c(cc3OC)N(C)[C@H]3[C@@](O)(C(=O)OC)[C@H](OC(C)=O)[C@]5(CC)C=CCN6CC[C@]43[C@@H]65)C2)C1 | 25
2.2 | 1.7 | CC[C@]1(NC(=O)c2ccc(OC)c(OC(F)(F)F)c2)C[C@H]2CN(CCc3c([nH]c4ccccc34)[C@@](C(=O)OC)(c3cc4c(cc3OC)N(C)[C@H]3[C@@](O)(C(=O)OC)[C@H](OC(C)=O)[C@]5(CC)C=CCN6CC[C@]43[C@@H]65)C2)C1 | 17
0.8 | 1.6 | CC[C@]1(NC(=O)c2ccc(NC(C)=O)cc2)C[C@H]2CN(CCc3c([nH]c4ccccc34)[C@@](C(=O)OC)(c3cc4c(cc3OC)N(C)[C@H]3[C@@](O)(C(=O)OC)[C@H](OC(C)=O)[C@]5(CC)C=CCN6CC[C@]43[C@@H]65)C2)C1 | 55
0.7 | 0.6 | CC[C@]1(NC(=O)c2ccc(C)c(N)c2)C[C@H]2CN(CCc3c([nH]c4ccccc34)[C@@](C(=O)OC)(c3cc4c(cc3OC)N(C)[C@H]3[C@@](O)(C(=O)OC)[C@H](OC(C)=O)[C@]5(CC)C=CCN6CC[C@]43[C@@H]65)C2)C1 | 25
0.6 | 0.6 | CC[C@]1(NC(=O)c2ccc3cnccc3c2)C[C@H]2CN(CCc3c([nH]c4ccccc34)[C@@](C(=O)OC)(c3cc4c(cc3OC)N(C)[C@H]3[C@@](O)(C(=O)OC)[C@H](OC(C)=O)[C@]5(CC)C=CCN6CC[C@]43[C@@H]65)C2)C1 | 7.3
0.6 | 1.8 | CC[C@]1(NC(=O)c2cncs2)C[C@H]2CN(CCc3c([nH]c4ccccc34)[C@@](C(=O)OC)(c3cc4c(cc3OC)N(C)[C@H]3[C@@](O)(C(=O)OC)[C@H](OC(C)=O)[C@]5(CC)C=CCN6CC[C@]43[C@@H]65)C2)C1 | 45
